Assay results as given in patent publication US20220146526A1, “METHOD FOR EVALUATING SAMPLE, ANALYSIS METHOD, METHOD FOR DETECTING DEGRADED SAMPLE, MARKER FOR DETECTING DEGRADED BLOOD PLASMA SAMPLE, AND MARKER FOR DETECTING DEGRADED SERUM SAMPLE” (SHIMADZU CORPORATION, priority 2019, published 2022).

Key:
Type in all cases: physicochemical, human
[1] = LC/MS of blood plasma sample: number of times of freezing and thawing (Table F); conditions: for Rate of increase or decrease: detection intensity relative to 1 at 2 times, freezing and thawing 4 times; for Increase or decrease: detection intensity, freezing and thawing 4 times vs 2 times
Method in brief: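 Human blood from a healthy subject drawn into EDTA tubes, cooled to 4° C within 1 min or after ≥5 min, centrifuged at 4° C, 3000 rpm, 15 min. Plasma frozen, then freeze-thawed 2, 4, 6 or 10 times and analysed by LC/MS (ESI, MRM). Intensities expressed relative to 2 freeze-thaw cycles set as 1.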

[2] = LC/MS of blood plasma sample: time from blood collection to cooling of blood (Table E); set-up: key to Rate of increase or decrease / Rate of increase or decrease (first value, increase): detection intensity relative to ≤1 min to cooling = 1; conditions: for Rate of increase or decrease: detection intensity relative to 1 at 1 minute or less, blood collection to cooling 5 minutes; for Increase or decrease: detection intensity, blood collection to cooling 5 minutes or more vs 1 minute or less
Experimental: At room temperature, 5 mL of blood from a healthy subject was taken into a blood-collecting vessel containing EDTA, and the blood-collecting vessel was inverted for mixing, then cooled, and allowed to stand at 4° C. Here, in order to investigate how the detection intensity of molecules contained in the sample was affected in a case where the time to cooling was set to 5 minutes or more as compared to that in a case where the time to cooling was set to 1 minute or less, preparations were performed under both the former condition and the latter condition. After standing, the blood sample was subjected to centrifugation under a condition of 4° C., 3000 rpm, and 15 minutes. […] After centrifugation, the blood-collecting vessel was left to stand at room temperature for 30 minutes, and the blood plasma was isolated during this 30 minutes. The obtained blood plasma sample was frozen and stored. Here, in order to investigate how the detection intensity of molecules contained in the sample was affected in cases where freezing and thawing was performed 4 times, 6 times, and 10 times after freezing as compared to that in a case where freezing and thawing was performed 2 times after freezing, freezing and thawing was performed under the respective conditions of 2, 4, 6, and 10 times.
(§1) Frozen blood plasma samples and serum samples were subjected to GC/MS or LC/MS. In GC/MS, the blood plasma samples and serum samples were subjected to methoxymation and trimethylsilylation and then introduced to GC-MS.
(§2) Analysis column: Discovery HS F5-3 (inner diameter of 2.1 mm, length of 150 mm, film thickness of 3 μm) (Sigma-Aldrich)
(§3) Column temperature: 40° C.
(§4) (A) 0.1% formic acid (dissolved in water)
(§5) (B) 0.1% formic acid (dissolved in acetonitrile)
(§6) Flow velocity: 0.25 mL/min
(§7) Ionization method: electrospray
(§8) Temperature: • Desolvation Line (DL) temperature: 250° C. • Heat block temperature: 400° C. • Interface temperature: 300° C.
(§9) Gas flow rate: • Nebulizer gas flow rate: 3.0 L/min • Drying gas flow rate: 10.0 L/min • Heating gas flow rate: 10.0 L/min
(§10) Mode: multiple reaction monitoring (MRM)
The rate of increase or decrease in Table E is the value of detection intensity relative to 1 that is the detection intensity in a case where the time from blood collection to cooling is set to 1 minute or less.

[3] = LC/MS of blood plasma sample: time from blood collection to centrifugation (Table D); conditions: for Rate of increase or decrease: detection intensity relative to 1 at 15 minutes; for Rate of increase or decrease / Increase or decrease: blood collection to centrifugation; for Increase or decrease: detection intensity; for Rate of increase or decrease (second value, decrease) / Rate of increase or decrease (first value, increase): different from individual to individual, relative to 1 at 15 minutes, collection to centrifugation; for Rate of increase or decrease (second value, decrease): individuals with decrease; for Rate of increase or decrease (first value, increase): individuals with increase
Method in brief: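 Healthy-subject blood (5 mL, EDTA) cooled and held at 4 °C before centrifugation (4 °C, 3000 rpm, 15 min), with plasma then frozen. LC/MS on Discovery HS F5-3 column at 40 °C, 0.1% formic acid water/acetonitrile, 0.25 mL/min, electrospray, MRM; intensities relative to 15 min collection-to-centrifugation set as 1.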

[4] = LC/MS of serum sample: number of times of freezing and thawing (Table M); set-up: key to Rate of increase or decrease: detection intensity relative to 1 at 2 freeze-thaw cycles; conditions: for Number of times when compound is affected / Increase or decrease: serum sample, LC/MS; for Number of times when compound is affected: detection intensity changed by 30% or more vs 2 times of freezing and thawing; for Increase or decrease: detection intensity vs 2 times of freezing and thawing
Method in brief: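 Serum was isolated at room temperature after centrifugation at room temperature, 3500 rpm, 5 minutes, then frozen and freeze-thawed 2, 4, 6 or 10 times. LC/MS used a Discovery HS F5-3 column at 40° C with formic acid water/acetonitrile, electrospray MRM. Intensity is relative to 2 freeze-thaw cycles.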

[5] = LC/MS of serum sample: time from blood collection to centrifugation (Table J); conditions: for Rate of increase or decrease: detection intensity relative to 1 at 15 minutes; for Increase or decrease / Time when compound is affected: serum sample, LC/MS; for Increase or decrease: detection intensity vs 15 minutes from blood collection to centrifugation; for Time when compound is affected: time from blood collection to centrifugation, detection intensity changed by 30% or more vs 15 minutes
Method in brief: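 Serum from blood centrifuged at room temperature, 3500 rpm, 5 min, then frozen; analysed by LC/MS on a Discovery HS F5-3 column at 40 °C. Mobile phase: 0.1% formic acid in water/acetonitrile, 0.25 mL/min, electrospray MRM. Values are intensity relative to a 15 min collection-to-centrifugation time.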

[6] = GC/MS of blood plasma sample: time from blood collection to centrifugation (Table A); conditions: blood collection to centrifugation
Method in brief: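 EDTA blood from a healthy subject was cooled at 4° C, centrifuged at 4° C, 3000 rpm, 15 minutes, and plasma was frozen. After methoxymation and trimethylsilylation, samples ran on GC/MS (BPX5 column, 60-330° C gradient, electron ionization, MRM). Intensity is relative to 15 minutes from collection to centrifugation.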

[7] = LC/MS of serum sample: time from centrifugation to isolation (Table K); set-up: key to Rate of increase or decrease: detection intensity relative to the 30-minute value set as 1; conditions: for Increase or decrease / Time when compound is affected: serum sample, LC/MS; for Increase or decrease: detection intensity vs 30 minutes from centrifugation to isolation; for Time when compound is affected: time from centrifugation to isolation, detection intensity changed by 30% or more vs 30 minutes
Experimental: After standing, the blood sample was subjected to centrifugation under a condition of room temperature, 3500 rpm, and 5 minutes. […] After centrifugation, the blood-collecting vessel was left to stand at room temperature, and the serum was isolated during this time. Here, in order to investigate how the detection intensity of molecules contained in the sample was affected in cases where the time during which the blood-collecting vessel was left at room temperature was set to 1 hour and 6 hours as compared to that in a case where the time was set to 30 minutes, preparations were performed under the respective conditions of 30 minutes, 1 hour, and 6 hours. The obtained serum sample was frozen and stored. Here, in order to investigate how the detection intensity of molecules contained in the sample was affected in cases where freezing and thawing was performed 4 times, 6 times, and 10 times after freezing as compared to that in a case where freezing and thawing was performed 2 times after freezing, freezing and thawing was performed under the respective conditions of 2, 4, 6, and 10 times.
as §1, §2, §3, §4, §5, §6, §7, §8, §9, §10
The rate of increase or decrease in Table K is the value of detection intensity relative to 1 that is the detection intensity in a case where the time from centrifugation to isolation is set to 30 minutes.

[8] = GC/MS of serum sample: time from centrifugation to isolation (Table H)
Method in brief: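 Blood was centrifuged at room temperature, 3500 rpm, 5 min, and the vessel left at room temperature for 30 min, 1 h or 6 h before serum isolation. Serum was methoxymated, trimethylsilylated and analysed by GC/MS with electron ionization in MRM mode; intensities expressed relative to the 30-min condition (=1).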

[9] = GC/MS of serum sample: number of times of freezing and thawing (Table I); conditions: serum, GC/MS
Method in brief: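 Serum was isolated after centrifugation at room temperature (3500 rpm, 5 min), frozen, and put through 2, 4, 6 or 10 freeze–thaw cycles. Samples were methoxymated and trimethylsilylated, then run by electron-ionization GC/MS in MRM mode on a BPX5 column (60 to 330 °C). Detection intensity is given relative to the 2-cycle sample, set as 1.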

[10] = GC/MS of serum sample: time from blood collection to centrifugation (Table G); conditions: blood collection to centrifugation
Method in brief: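 Blood was held for varying times before centrifugation (room temperature, 3500 rpm, 5 min); serum was frozen, then methoxymated and trimethylsilylated for GC/MS with electron ionization in MRM mode. Values are detection intensities relative to the 15-minute collection-to-centrifugation condition, set as 1.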

| SMILES | Rate of increase or decrease [1] | Increase or decrease [1] | Rate of increase or decrease [2] | Increase or decrease [2] | Rate of increase or decrease ([3]; after 6 hours) | Increase or decrease ([3]; after 6 hours vs 15 minutes) | Number of times when compound is affected [4] [times] | Increase or decrease [4] | Increase or decrease [5] | Time when compound is affected [5] | further results |
| --- | --- | --- | --- | --- | --- | --- | --- | --- | --- | --- | --- |
| C[S+](CC[C@H](N)C(=O)[O-])C[C@H]1O[C@@H](n2cnc3c(N)ncnc32)[C@H](O)[C@@H]1O (stereo partly shown) [S-adenosylmethionine] | 1.33 | Increase | 1.60 | Increase | 0.62 | Decrease |  |  |  |  |  |
| O=C(O)CC(O)C(=O)O (stereo not shown) [Malic acid] | 2.37 | Increase |  |  | 0.58 | Decrease | 10 | Decrease | Increase | After 4 hours | Rate of increase or decrease ([4]; 10 times of freezing and thawing, detection intensity relative to 1 at 2 times): 0.64; Rate of increase or decrease ([5]; after 4 hours from blood collection to centrifugation): 1.33; Rate of increase or decrease ([6]; detection intensity relative to 1 at 15 minutes, after 12 hours): 1.36; Increase or decrease ([6]; detection intensity, after 12 hours vs 15 minutes): Increase; Rate of increase or decrease ([7]; after 1 hour from centrifugation to isolation, detection intensity relative to 1 at 30 minutes): 1.38; Increase or decrease [7]: Increase; Time when compound is affected [7]: After 1 hour hours |
| NCCCC(=O)O [4-Aminobutyric acid] | 1.76 | Increase | 1.50 | Increase | 0.70 | Decrease |  |  |  |  |  |
| Nc1ccn([C@@H]2O[C@H](COP(=O)(O)O)[C@@H](O)[C@H]2O)c(=O)n1 [Cytidine monophosphate] | 1.98 | Increase | 1.34 | Increase |  |  |  |  |  |  | Rate of increase or decrease ([3]; after 4 hours): 1.75; Increase or decrease ([3]; after 4 hours vs 15 minutes): Increase |
| CN(C)C(N)=NCCC[C@H](N)C(=O)O [Asymmetric dimethylarginine] |  |  | 1.31 | Increase |  |  | 6 | Decrease |  |  | Rate of increase or decrease ([4]; 6 times of freezing and thawing, detection intensity relative to 1 at 2 times): 0.69; Increase or decrease ([3]; after 12 hours vs 15 minutes): Different from individual; Rate of increase or decrease (second value, decrease) ([3]; after 12 hours): 0.66; Rate of increase or decrease (first value, increase) ([3]; after 12 hours): 1.78 |
| NCCc1ccc(O)c(O)c1 [Dopamine] |  |  | 1.43 | Increase | 0.53 | Decrease |  |  | Increase | After 12 hours | Rate of increase or decrease ([8]; detection intensity relative to 1 at 30 minutes, after 1 hour): 0.64; Increase or decrease ([8]; detection intensity, after 1 hour vs 30 minutes): Decrease; Rate of increase or decrease ([5]; after 12 hours from blood collection to centrifugation): 1.39; Rate of increase or decrease ([9]; detection intensity relative to 1 at 2 times, freezing and thawing 4 times): 0.53; Increase or decrease ([9]; detection intensity, freezing and thawing 4 times vs 2 times): Decrease; Rate of increase or decrease ([10]; detection intensity relative to 1 at 15 minutes, after 4 hours): 1.50; Increase or decrease ([10]; detection intensity, after 4 hours vs 15 minutes): Increase |
| N[C@@H](CCC(=O)N[C@@H](CS)C(=O)O)C(=O)O [5-Glutamylcysteine] |  | Increase | 1.33 | Increase |  |  |  |  |  |  | Increase or decrease ([3]; after 4 hours vs 15 minutes): Different from individual; Rate of increase or decrease (second value, decrease) ([3]; after 4 hours): 0.70; Rate of increase or decrease (first value, increase) ([3]; after 4 hours): 1.79 |
| N=C(N)NCCC[C@H](NC(CC(=O)O)C(=O)O)C(=O)O (stereo partly shown) [Argininosuccinic acid] | 2.01 | Increase |  |  |  |  | 6 | Different from individual | Decrease | After 6 hours | Rate of increase or decrease ([4]; 6 times of freezing and thawing, relative to 1 at 2 times, different from individual to individual, first value (increase)): 1.38; Rate of increase or decrease ([4]; 6 times of freezing and thawing, relative to 1 at 2 times, different from individual to individual, second value (decrease)): 0.49; Rate of increase or decrease ([5]; after 6 hours from blood collection to centrifugation): 0.65; Increase or decrease [7]: Increase; Time when compound is affected [7]: After 1 hour hours; Rate of increase or decrease ([3]; after 12 hours): 0.61; Increase or decrease ([3]; after 12 hours vs 15 minutes): Decrease |
